Data on 28 compounds can be found in patent US20240002391A1, “4-ALKOXYPYRROLO[2,1-F][1,2,4]TRIAZINES AND PREPARATION AND USES THEREOF” (BioSplice Therapeutics, Inc., priority 2022, published 2024).

Molecules are shown by their SMILES.

This assay deals with recombinant DYRK1A kinase (Homo sapiens (Human), UniProt Q13627). The assay can be described thus: DYRK1A kinase assay (Ser/Thr 18 peptide Z-lyte FRET). The assay is classed as biochemical. To be noted: DYRK1A kinase activity, Z-lyte Ser/Thr 18 peptide, 15 μM ATP; method text calls the value IC50; read-out: EC50 (the source's name). A digest of the protocol:
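Z-lyte FRET: recombinant DYRK1A 0.25 μg/mL, ATP 15 μM, Ser/Thr 18 peptide 4 μM, with compound (11-point 1:3, 10 μM top) 1 h at room temperature, then development reagent 1 h. Coumarin/fluorescein emission ratio converted to % phosphorylation; IC50 by non-linear regression, duplicates.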

With `COc1nc(N[C@H]2C[C@@](C)(O)C2)nn2ccc(-c3ccn4nccc4c3)c12` [Compound 7, cis-3-((4-Methoxy-5-(pyrazolo[1,5-a]pyridin-5-yl)pyrrolo[2,1-f][1,2,4]triazin-2-yl)amino)-1-methylcyclobutan-1-ol], the IC50 is 4.6 nM.

`CN1CC[C@H](Nc2nc(OC3COC3)c3c(-c4ccc5ncccc5c4)ccn3n2)[C@H](F)C1` [Compound 1090, N-((3R,4S)-3-Fluoro-1-methylpiperidin-4-yl)-4-(oxetan-3-yloxy)-5-(quinolin-6-yl)pyrrolo[2,1-f][1,2,4]triazin-2-amine]: the IC50 amounted to 5.7 nM.

With `CNC(=O)c1cnn2ccc(-c3ccn4nc(N[C@H]5CC[C@@H](OC)CC5)nc(OC)c34)cc12` [Compound 399, 5-(4-Methoxy-2-((cis-4-methoxycyclohexyl)amino)pyrrolo[2,1-f][1,2,4]triazin-5-yl)-N-methylpyrazolo[1,5-a]pyridine-3-carboxamide], the IC50 stood at 3.5 nM.

In the case of `COc1nc(N[C@H]2CCNC[C@H]2F)nn2ccc(-c3ccn4nccc4c3)c12` [Compound 30, N-((3R,4S)-3-Fluoropiperidin-4-yl)-4-methoxy-5-(pyrazolo[1,5-a]pyridin-5-yl)pyrrolo[2,1-f][1,2,4]triazin-2-amine], the IC50 stood at 22.1 nM.

Take `COc1nc(NC2CCC3(CC2)COC3)nn2ccc(-c3ccc4nnn(C)c4c3)c12` [Compound 230, 4-Methoxy-5-(1-methyl-1H-benzo[d][1,2,3]triazol-6-yl)-N-(2-oxaspiro[3.5]nonan-7-yl)pyrrolo[2,1-f][1,2,4]triazin-2-amine]: the IC50 was found to be 4.2 nM.

As for `COc1nc(N[C@H]2C[C@](C)(NC(C)=O)C2)nn2ccc(-c3cnc4nccn4c3)c12` [Compound 935, N-((1r,3r)-3-((5-(Imidazo[1,2-a]pyrimidin-6-yl)-4-methoxypyrrolo[2,1-f][1,2,4]triazin-2-yl)amino)-1-methylcyclobutyl)acetamide], the IC50 stood at 1.2 nM.

Take `COc1nc(N[C@@H]2CN(C(C)=O)C[C@@H]2F)nn2ccc(-c3ccc4nnn(CC(F)F)c4c3)c12` [Compound 734, 1-((3R,4S)-3-((5-(1-(2,2-Difluoroethyl)-1H-benzo[d][1,2,3]triazol-6-yl)-4-methoxypyrrolo[2,1-f][1,2,4]triazin-2-yl)amino)-4-fluoropyrrolidin-1-yl)ethan-1-one]: the IC50 is 0.8 nM.

On to `COc1nc(N[C@H]2C[C@@](C)(NC(C)=O)C2)nn2ccc(-c3ccc4nc(C)n(CC(F)F)c4c3)c12` [Compound 108, N-(cis-3-((5-(1-(2,2-Difluoroethyl)-2-methyl-1H-benzo[d]imidazol-6-yl)-4-methoxypyrrolo[2,1-f][1,2,4]triazin-2-yl)amino)-1-methylcyclobutyl)acetamide], for which the IC50 turned out to be 3.3 nM.

As for `COc1nc(NC23CC(N)(C2)C3)nn2ccc(-c3ccc4nccnc4c3)c12` [Compound 381, N1-(4-Methoxy-5-(quinoxalin-6-yl)pyrrolo[2,1-f][1,2,4]triazin-2-yl)bicyclo[1.1.1]pentane-1,3-diamine], the IC50 was found to be 2.5 nM.

As to `COc1nc(N[C@@H]2CN(C(C)=O)C[C@@H]2F)nn2ccc(-c3cc(F)c4nc(C)n(CC(F)F)c4c3)c12` [Compound 513, 1-((3R,4S)-3-((5-(1-(2,2-Difluoroethyl)-4-fluoro-2-methyl-1H-benzo[d]imidazol-6-yl)-4-methoxypyrrolo[2,1-f][1,2,4]triazin-2-yl)amino)-4-fluoropyrrolidin-1-yl)ethan-1-one], the IC50 worked out at 2.8 nM.

Regarding `COc1nc(N[C@@H]2CCN(C(C)=O)CC2(F)F)nn2ccc(-c3ccc4nnn(CC(F)(F)F)c4c3)c12` [Compound 921, (R)-1-(3,3-Difluoro-4-((4-methoxy-5-(1-(2,2,2-trifluoroethyl)-1H-benzo[d]1[1,2,3]triazol-6-yl)pyrrolo[2,1-f][1,2,4]triazin-2-yl)amino)piperidin-1-yl)ethan-1-one], the IC50 is 1.4 nM.

For the compound `CC(=O)N1C[C@H](F)[C@H](Nc2nc(O)c3c(-c4cnc5nccn5c4)ccn3n2)C1` [Compound 263, 1-((3S,4R)-3-Fluoro-4-((4-hydroxy-5-(imidazo[1,2-a]pyrimidin-6-yl)pyrrolo[2,1-f][1,2,4]triazin-2-yl)amino)pyrrolidin-1-yl)ethan-1-one], the IC50 worked out at 112 nM.

As to `COc1nc(NC2CCC3(CC2)CN(C(=O)OC(C)(C)C)C3)nn2ccc(-c3ccc4ncnn4c3)c12` [Compound 197, tert-Butyl 7-((5-([1,2,4]triazolo[1,5-a]pyridin-6-yl)-4-methoxypyrrolo[2,1-f][1,2,4]triazin-2-yl)amino)-2-azaspiro[3.5]nonane-2-carboxylate], the IC50 worked out at 29.6 nM.

On to `COc1nc(N[C@H]2C[C@@](C)(NC(C)=O)C2)nn2ccc(-c3ccn4nccc4c3)c12` [Compound 97, N-(cis-3-((4-Methoxy-5-(pyrazolo[1,5-a]pyridin-5-yl)pyrrolo[2,1-f][1,2,4]triazin-2-yl)amino)-1-methylcyclobutyl)acetamide], for which the IC50 is 1.1 nM.

On to `COc1nc(N[C@H]2C[C@@](C)(NC(C)=O)C2)nn2ccc(-c3cc(F)c4nnn(CC(F)F)c4c3)c12` [Compound 805, N-((1s,3s)-3-((5-(1-(2,2-Difluoroethyl)-4-fluoro-1H-benzo[d][1,2,3]triazol-6-yl)-4-methoxypyrrolo[2,1-f][1,2,4]triazin-2-yl)amino)-1-methylcyclobutyl)acetamide], for which the IC50 was 1.6 nM.

As for `COc1nc(NC2CCC3(CC2)COC3)nn2ccc(-c3ccc4ncccc4c3)c12` [Compound 326, 4-Methoxy-5-(quinolin-6-yl)-N-(2-oxaspiro[3.5]nonan-7-yl)pyrrolo[2,1-f][1,2,4]triazin-2-amine], the IC50 was found to be 7.3 nM.

Turning to `COc1nc(N[C@@H]2CCN(C3COC3)CC2(F)F)nn2ccc(-c3cnc4nccn4c3)c12` [Compound 968, (R)—N-(3,3-Difluoro-1-(oxetan-3-yl)piperidin-4-yl)-5-(imidazo[1,2-a]pyrimidin-6-yl)-4-methoxypyrrolo[2,1-f][1,2,4]triazin-2-amine], the IC50 was 2.8 nM.

With `COc1nc(N[C@H]2C[C@@](C)(O)C2)nn2ccc(-c3ccc4nnn(CC(F)F)c4c3)c12` [Compound 710, (1s,3s)-3-((5-(1-(2,2-Difluoroethyl)-1H-benzo[d][1,2,3]triazol-6-yl)-4-methoxypyrrolo[2,1-f][1,2,4]triazin-2-yl)amino)-1-methylcyclobutan-1-ol], the IC50 is 0.9 nM.

As for `COc1nc(N[C@H]2CCN(C(C)=O)C[C@H]2F)nn2ccc(-c3cc(F)c4nc(C)n(CC(F)F)c4c3)c12` [Compound 521, 1-((3R,4S)-4-((5-(1-(2,2-Difluoroethyl)-4-fluoro-2-methyl-1H-benzo[d]imidazol-6-yl)-4-methoxypyrrolo[2,1-f][1,2,4]triazin-2-yl)amino)-3-fluoropiperidin-1-yl)ethan-1-one], the IC50 was 2.6 nM.

As to `COc1nc(N[C@H]2C[C@@](C)(O)C2)nn2ccc(-c3cc(F)c4nc(C)n(CC(F)F)c4c3)c12` [Compound 509, cis-3-((5-(1-(2,2-Difluoroethyl)-4-fluoro-2-methyl-1H-benzo[d]imidazol-6-yl)-4-methoxypyrrolo[2,1-f][1,2,4]triazin-2-yl)amino)-1-methylcyclobutan-1-ol], the IC50 is 1.4 nM.

In the case of `COc1nc(N[C@H]2C[C@](C)(N)C2)nn2ccc(-c3ccc4ncnn4c3)c12` [Compound 190, trans-N^1-(5-([1,2,4]Triazolo[1,5-a]pyridin-6-yl)-4-methoxypyrrolo[2,1-f][1,2,4]triazin-2-yl)-3-methylcyclobutane-1,3-diamine], the IC50 worked out at 11.5 nM.

Consider `COc1nc(N[C@H]2CCN(C3CCC3)CC2(F)F)nn2ccc(-c3ccc4nc(C)n(CC(F)F)c4c3)c12` [Compound 141, (S)—N-(1-Cyclobutyl-3,3-difluoropiperidin-4-yl)-5-(1-(2,2-difluoroethyl)-2-methyl-1H-benzo[d]imidazol-6-yl)-4-methoxypyrrolo[2,1-f][1,2,4]triazin-2-amine], for which the IC50 is 21.8 nM.

For the compound `COc1nc(NC2CCCCC2)nn2ccc(-c3cnc4nccn4c3)c12` [Compound 944, N-Cyclohexyl-5-(imidazo[1,2-a]pyrimidin-6-yl)-4-methoxypyrrolo[2,1-f][1,2,4]triazin-2-amine], the IC50 was found to be 1.5 nM.

On to `COc1nc(N[C@H](C)c2ccccn2)nn2ccc(-c3ccn4nccc4c3)c12` [Compound 93, (R)-4-Methoxy-5-(pyrazolo[1,5-a]pyridin-5-yl)-N-(1-(pyridin-2-yl)ethyl)pyrrolo[2,1-f][1,2,4]triazin-2-amine], for which the IC50 amounted to 194 nM.

Regarding `COc1nc(N[C@H]2CC[C@@](C)(O)CC2)nn2ccc(-c3ccc4nnn(C)c4c3)c12` [Compound 224, cis-4-((4-Methoxy-5-(1-methyl-1H-benzo[d][1,2,3]triazol-6-yl)pyrrolo[2,1-f][1,2,4]triazin-2-yl)amino)-1-methylcyclohexan-1-ol], the IC50 stood at 11.3 nM.

With `COc1nc(N[C@@H]2CCN(C3COC3)CC2(F)F)nn2ccc(-c3cc(F)c4nc(C)n(C(C)C)c4c3)c12` [Compound 551, (R)—N-(3,3-Difluoro-1-(oxetan-3-yl)piperidin-4-yl)-5-(4-fluoro-1-isopropyl-2-methyl-1H-benzo[d]imidazol-6-yl)-4-methoxypyrrolo[2,1-f][1,2,4]triazin-2-amine], the IC50 was found to be 1.6 nM.

Regarding `COc1nc(N[C@H]2CC[C@@H](NC(C)=O)CC2)nn2ccc(-c3ccc4nnn(CC(F)F)c4c3)c12` [Compound 717, N-(cis-4-((5-(1-(2,2-Difluoroethyl)-1H-benzo[d][1,2,3]triazol-6-yl)-4-methoxypyrrolo[2,1-f][1,2,4]triazin-2-yl)amino)cyclohexyl)acetamide], the IC50 was 2.3 nM.

As for `COc1nc(NC2CC3CCC(C2)O3)nn2ccc(-c3cnc4nccn4c3)c12` (stereo not shown) [Compound 1150, N-(8-Oxabicyclo[3.2.1]octan-3-yl)-5-(imidazo[1,2-a]pyrimidin-6-yl)-4-methoxypyrrolo[2,1-f][1,2,4]triazin-2-amine], the IC50 came out at 4.4 nM.
